For test [1], the target named is T1, human indoleamine 2,3-dioxygenase 1 (hIDO1) (Homo sapiens, UniProt P14902).
T1 construct: His tag (N); purchased BPS Bioscience, San Diego, Calif., USA; host or cells: E. coli
Description: In-vitro human indoleamine 2,3-dioxygenase 1 (IDO1) enzyme assay. Format: biochemical. The conditions noted are these: for inhibition at 1 µM: hIDO1 enzyme at 1.0 μM concentration; for inhibition at 10 µM: hIDO1 enzyme at 10.0 μM concentration; for pIC50: hIDO1 enzyme. The essentials: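 His-tagged hIDO1 (E. coli, 50 ng) incubated with 80 μM tryptophan, 10 mM ascorbate, 10 μM methylene blue, catalase and 0.01% Tween-20 in 50 mM sodium phosphate pH 6.5, 60 min, 37 °C. Piperidine converts N-formylkynurenine to fluorescent NFK-PIP (ex 400/em 500 nm); IC50 by nonlinear regression.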

Test [2] addresses T2, human tryptophan 2,3-dioxygenase (hTDO) (Homo sapiens, UniProt P48775).
T2 construct: His tag (N); purchased BPS Bioscience, San Diego, Calif., USA; host or cells: E. coli
The test can be described thus: In-vitro human tryptophan 2,3-dioxygenase (TDO) enzyme assay. The conditions noted are these: hTDO enzyme at 1.0 μM concentration. Format: biochemical. The essentials:
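N-His-tagged hTDO expressed in E. coli (125 ng) incubated with 200 μM L-tryptophan, 100 mM sodium phosphate pH 7.0, 0.01% Tween-20, 100 μM ascorbate, 60 min at 37 °C. Product converted with 200 mM piperidine (65 °C, 20 min) to NFK-PIP, fluorescence 400/500 nm; IC50 by nonlinear regression.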

Each structure is given as a SMILES string. pIC50: −log10 of the molar value.

T1 sequence (P14902 whole entry): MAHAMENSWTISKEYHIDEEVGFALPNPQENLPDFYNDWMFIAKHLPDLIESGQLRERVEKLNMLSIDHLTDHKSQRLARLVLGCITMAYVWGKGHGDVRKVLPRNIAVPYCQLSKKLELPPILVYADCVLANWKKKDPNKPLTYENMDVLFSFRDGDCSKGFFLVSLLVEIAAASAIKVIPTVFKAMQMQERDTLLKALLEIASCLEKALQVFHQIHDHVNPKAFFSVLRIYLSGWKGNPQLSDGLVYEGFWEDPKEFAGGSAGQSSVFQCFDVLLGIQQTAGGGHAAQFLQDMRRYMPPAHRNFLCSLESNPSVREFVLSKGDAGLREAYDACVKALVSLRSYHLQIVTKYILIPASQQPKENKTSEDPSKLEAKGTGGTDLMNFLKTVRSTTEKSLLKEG
T2 sequence (P48775 whole entry): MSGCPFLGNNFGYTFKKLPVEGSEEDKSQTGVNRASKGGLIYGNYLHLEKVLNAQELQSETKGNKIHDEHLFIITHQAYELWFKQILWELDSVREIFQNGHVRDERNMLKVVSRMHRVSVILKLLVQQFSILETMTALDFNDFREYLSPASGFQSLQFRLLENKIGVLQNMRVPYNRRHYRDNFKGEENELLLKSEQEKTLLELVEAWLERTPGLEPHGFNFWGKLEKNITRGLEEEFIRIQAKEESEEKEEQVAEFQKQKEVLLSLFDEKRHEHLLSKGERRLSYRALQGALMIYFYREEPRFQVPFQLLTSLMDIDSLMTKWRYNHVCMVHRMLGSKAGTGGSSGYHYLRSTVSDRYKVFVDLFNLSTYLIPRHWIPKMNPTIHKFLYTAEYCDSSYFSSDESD

With `CC1=C(c2ccccc2)C(CC(=O)C2CCC(C(=O)Nc3ccc(F)cc3F)CC2)n2cncc21` (stereo not shown) [Example 110], in test [1], the inhibition (commonly the change of the read-out against control, counted positive when it falls) at 1 µM was not above 50% and the inhibition at 10 µM is not below 50%. For the same molecule, in test [2], the inhibition at 1 µM was not below 50%.
On to `CC1=C(c2ccccc2)C(C[C@H](O)C2CCC(C(=O)Nc3ccccc3)CC2)n2cncc21` (stereo partly shown) [Example 112], for which, in test [1], the pIC50 (commonly the IC50 on a negative log10 scale, so that one unit is a factor of ten) was more than 6.30; the inhibition at 1 µM is not below 50%; the inhibition at 10 µM is not below 50%. This molecule also yielded an inhibition at 1 µM in test [2] not below 50%.
In the case of `CC1=C(c2ccccc2)C(CC(=O)C2CCCN2S(=O)(=O)c2ccc(C)cc2)n2cncc21` (stereo not shown) [Example 113], in test [1], the inhibition at 1 µM was not above 50% and the inhibition at 10 µM was not below 50%. For the same molecule, in test [2], the inhibition at 1 µM was not below 50%.
As to `CC1=C(c2ccccc2)C(C[C@@H](O)C2CCCN2S(=O)(=O)c2ccc(C)cc2)n2cncc21` (stereo partly shown) [Example 114], the inhibition at 1 µM was not above 50% in test [1] and not below 50% in test [2]. The molecule further yielded an inhibition at 10 µM in test [1] not below 50%.
With `CC1=C(c2ccccc2)C(CC(=O)C2CCCN2C(=O)c2ccccc2)n2cncc21` (stereo not shown) [Example 115], in test [1], the inhibition at 1 µM is not above 50% and the inhibition at 10 µM is not above 50%. In test [2], this molecule returned an inhibition at 1 µM not above 50%.
`CC1=C(c2ccccc2)C(C[C@@H](O)C2CCCN2C(=O)c2ccccc2)n2cncc21` (stereo partly shown) [Example 116]: in test [1], the inhibition at 1 µM was not above 50% and the inhibition at 10 µM is not above 50%. The molecule further registered an inhibition at 1 µM in test [2] not above 50%.
In test [1], `CC1=C(c2ccccc2)C(CC(=O)C2CCC(C(=O)Nc3ccncc3)CC2)n2cncc21` (stereo not shown) [Example 117] gave a pIC50 of less than 6.30, an inhibition at 1 µM not below 50% and an inhibition at 10 µM not below 50%. In addition, the inhibition at 1 µM in test [2] was not below 50%.
In test [1], `CC1=C(c2ccccc2)C(CC(=O)C2CCC(C(=O)Nc3ccc(Cl)cc3C)CC2)n2cncc21` (stereo not shown) [Example 118] yielded an inhibition at 1 µM not below 50% and an inhibition at 10 µM not below 50%. This molecule registered an inhibition at 1 µM in test [2] not below 50%.
In the case of `CC1=C(c2ccccc2)C(C[C@H](O)C2CCC(C(=O)Nc3ccncc3)CC2)n2cncc21` (stereo partly shown) [Example 119], in test [1], the pIC50 is more than 6.30, the inhibition at 1 µM was not below 50% and the inhibition at 10 µM is not below 50%. Besides, the inhibition at 1 µM in test [2] is not below 50%.
For the molecule `CC1=C(c2ccccc2)C(C[C@H](O)C2CCC(C(=O)Nc3ccc(Cl)cc3C)CC2)n2cncc21` (stereo partly shown) [Example 120], in test [1], the pIC50 is more than 6.30, the inhibition at 1 µM is not below 50% and the inhibition at 10 µM was not below 50%. For the same molecule, the inhibition at 1 µM in test [2] was not below 50%.
In test [1], `CC1=C(c2ccccc2)C(CC(=O)C2CCC(C(=O)NC3CCCCC3)CC2)n2cncc21` (stereo not shown) [Example 123] displayed an inhibition at 1 µM not above 50% and an inhibition at 10 µM not below 50%. Moreover, the inhibition at 1 µM in test [2] is not below 50%.
In test [1], `CC1=C(c2ccccc2)C(CC(=O)C2CCC(C(=O)N3CCC(=O)CC3)CC2)n2cncc21` (stereo not shown) [Example 124] returned an inhibition at 1 µM not above 50% and an inhibition at 10 µM not below 50%. In test [2], this molecule yielded an inhibition at 1 µM not above 50%.
Turning to `CC1=C(c2ccccc2)C(C[C@H](O)C2CCC(C(=O)N3CCC(O)CC3)CC2)n2cncc21` (stereo partly shown) [Example 125], in test [1], the inhibition at 1 µM is not below 50% and the inhibition at 10 µM is not below 50%. Further, the inhibition at 1 µM in test [2] was not above 50%.
In test [1], `CC1=C(c2ccccc2)C(C[C@H](O)C2CCC(C(=O)NC3CCCCC3)CC2)n2cncc21` (stereo partly shown) [Example 126] gave a pIC50 of more than 6.30, an inhibition at 1 µM not below 50% and an inhibition at 10 µM not below 50%. In addition, in test [2], the inhibition at 1 µM was not below 50%.
As to `CC1=C(c2ccccc2)C(CC(O)C2CCC(O)CC2)n2cncc21` (stereo not shown) [Example 127], the inhibition at 1 µM in test [1] and in test [2] was not below 50% in each case.
Consider `CC1=C(c2ccccc2)C(C[C@H](O)C2CCC(C(=O)Nc3cccnc3)CC2)n2cncc21` (stereo partly shown) [Example 128], for which, in test [1], the pIC50 was more than 6.30, the inhibition at 1 µM is not below 50% and the inhibition at 10 µM was not below 50%. Further, the inhibition at 1 µM in test [2] is not below 50%.
Take `CC1=C(c2ccccc2)C(CC(O)[C@H]2CC[C@H](C(=O)N[C@H]3CC[C@H](O)CC3)CC2)n2cncc21` (stereo partly shown) [Example 129]: in test [1], the pIC50 was less than 6.30, the inhibition at 1 µM is not below 50% and the inhibition at 10 µM is not below 50%. The inhibition at 1 µM in test [2] was not below 50%.
With `CC1=C(c2ccccc2)C(CC(=O)C2CCC(C(=O)O)CC2)n2cncc21` (stereo not shown) [Example 130], the inhibition at 1 µM in test [1] and in test [2] was not above 50% in each case. In addition, in test [1], the inhibition at 10 µM is not above 50%.
In test [1], `COC(=O)[C@H]1CC[C@@H]([C@@H](O)CC2C(c3ccccc3)=C(C)c3cncn32)CC1` (stereo partly shown) [Example 131] gave a pIC50 of more than 6.30, an inhibition at 1 µM not below 50% and an inhibition at 10 µM not below 50%. This molecule gave an inhibition at 1 µM in test [2] not below 50%.
On to `CC1=C(c2ccccc2)C(C[C@H](O)C2CCC(C(=O)O)CC2)n2cncc21` (stereo partly shown) [Example 133], for which the inhibition at 1 µM in test [1] was not above 50%; in test [2] it was not below 50%. In test [1], this molecule came in with an inhibition at 10 µM not below 50%.
`CNC(=O)C1CCC(C(=O)CC2C(c3ccccc3)=C(C)c3cncn32)CC1` (stereo not shown) [Example 135]: in test [1], the inhibition at 1 µM is not above 50% and the inhibition at 10 µM is not above 50%. The molecule further returned an inhibition at 1 µM in test [2] not below 50%.
`CC1=C(c2ccccc2)C(CC(=O)C2CCC(c3ccccc3)CC2)n2cncc21` (stereo not shown) [Example 136]: in test [1], the inhibition at 1 µM was not below 50% and the inhibition at 10 µM was not below 50%. In addition, the inhibition at 1 µM in test [2] is not below 50%.
In test [1], `CC1=C(c2ccccc2)C(CC(O)C2CCN(C(=O)OCc3ccccc3)CC2)n2cncc21` (stereo not shown) [Example 137, 4-[1-Hydroxy-2-(7-methyl-6-phenyl-5H-pyrrolo[1,2-c]imidazol-5-yl)-ethyl]-piperidine-1-carboxylic acid benzyl ester] gave a pIC50 of more than 6.30, an inhibition at 1 µM not below 50% and an inhibition at 10 µM not below 50%. For the same molecule, in test [2], the inhibition at 1 µM was not below 50%.
Take `CC1=C(c2ccccc2)C(CC(=O)C2CCN(C(=O)Cc3ccccc3F)CC2)n2cncc21` (stereo not shown) [Example 138, 2-(2-Fluorophenyl)-1-(4-(2-(7-methyl-6-phenyl-5H-pyrrolo[1,2-c]imidazol-5-yl)acetyl)piperidin-1-yl)ethan-1-one]: the inhibition at 1 µM in test [1] and in test [2] was not below 50% each time. Also, the inhibition at 10 µM in test [1] was not below 50%.
In test [1], `CC1=C(c2ccccc2)C(CC(O)C2CCN(C(=O)Cc3ccccc3F)CC2)n2cncc21` (stereo not shown) [Example 139, 2-(2-Fluorophenyl)-1-(4-(1-hydroxy-2-(7-methyl-6-phenyl-5H-pyrrolo[1,2-c]imidazol-5-yl)ethyl)piperidin-1-yl)ethan-1-one] showed a pIC50 of more than 6.30, an inhibition at 1 µM not below 50% and an inhibition at 10 µM not below 50%. Besides, the inhibition at 1 µM in test [2] was not below 50%.
In test [1], `CC1=C(c2ccccc2)C(CC(=O)C2CCN(Cc3ccccc3)CC2)n2cncc21` (stereo not shown) [Example 140] returned an inhibition at 1 µM not above 50% and an inhibition at 10 µM not above 50%. The inhibition at 1 µM in test [2] is not above 50%.
In test [1], `CC1=C(c2ccccc2)C(CC(O)C2CCN(Cc3ccccc3)CC2)n2cncc21` (stereo not shown) [Example 141] returned an inhibition at 1 µM not above 50% and an inhibition at 10 µM not above 50%. In test [2], this molecule gave an inhibition at 1 µM not above 50%.
In test [1], `CC1=C(c2ccccc2)C(CC(=O)C2CCN(C(=O)c3ccccc3)CC2)n2cncc21` (stereo not shown) [Example 142] showed an inhibition at 1 µM not above 50% and an inhibition at 10 µM not below 50%. The inhibition at 1 µM in test [2] is not below 50%.
In the case of `CC1=C(c2ccccc2)C(CC(=O)C2CCN(S(=O)(=O)c3ccccc3)CC2)n2cncc21` (stereo not shown) [Example 143], in test [1], the inhibition at 1 µM is not above 50% and the inhibition at 10 µM is not below 50%. In test [2], this molecule registered an inhibition at 1 µM not below 50%.
With `CC1=C(c2ccccc2)C(CC(O)C2CCN(C(=O)c3ccccc3)CC2)n2cncc21` (stereo not shown) [Example 144], in test [1], the pIC50 is more than 6.30, the inhibition at 1 µM was not below 50% and the inhibition at 10 µM was not below 50%. In addition, the inhibition at 1 µM in test [2] was not above 50%.
With `CC1=C(c2ccccc2)C(CC(O)C2CCN(S(=O)(=O)c3ccccc3)CC2)n2cncc21` (stereo not shown) [Example 145], in test [1], the pIC50 is more than 6.30, the inhibition at 1 µM was not below 50% and the inhibition at 10 µM was not below 50%. The inhibition at 1 µM in test [2] was not below 50%.
Regarding `CCOC(=O)N1CCC(C(=O)CC2C(c3ccccc3)=C(C)c3cncn32)CC1` (stereo not shown) [Example 146], in test [1], the inhibition at 1 µM was not above 50% and the inhibition at 10 µM was not below 50%. Further, in test [2], the inhibition at 1 µM was not above 50%.
With `CC1=C(c2ccccc2)C(CC(=O)C2CCN(C(=O)C3CCCCC3)CC2)n2cncc21` (stereo not shown) [Example 147], in test [1], the inhibition at 1 µM was not above 50% and the inhibition at 10 µM is not below 50%. The inhibition at 1 µM in test [2] was not above 50%.
As for `CCOC(=O)N1CCC(C(O)CC2C(c3ccccc3)=C(C)c3cncn32)CC1` (stereo not shown) [Example 148], in test [1], the pIC50 was more than 6.30, the inhibition at 1 µM is not below 50% and the inhibition at 10 µM was not below 50%. In addition, the inhibition at 1 µM in test [2] is not above 50%.
In test [1], `CC1=C(c2ccccc2)C(CC(O)C2CCN(C(=O)C3CCCCC3)CC2)n2cncc21` (stereo not shown) [Example 149] had a pIC50 of more than 6.30, an inhibition at 1 µM not below 50% and an inhibition at 10 µM not below 50%. The molecule further yielded an inhibition at 1 µM in test [2] not above 50%.

Values taken from patent US20190031665A1, “DERIVATIVES OF PYRROLOIMIDAZOLE OR ANALOGUES THEREOF WHICH ARE USEFUL FOR THE TREATMENT OF INTER ALIA CANCER” (EMCURE PHARMACEUTICALS LIMITED, priority 2016, published 2019).
